Laboratory results reported in patent EP2832371B1, “APPLICATION OF GASTRODIN AS SOLUBILIZER AND METHOD FOR PREPARING INJECTION OR POWDER FOR INJECTION” (KPC Pharmaceuticals, Inc., priority 2012, dated 2013).

experiment: Maximum tolerance dose of gastrodin calculated from intramuscular and intravenous injection in animals; type: in vivo, human; details: calculated at 60 kg from maximum tolerance dose of intramuscular and intravenous injection for animals
Description: Gastrodin is a white crystalline powder, odorless, bitter taste; melting point: 153 °C~156 °C; easily soluble in water or methanol and soluble in ethanol. Gastrodin has sedative, hypnotic and analgesic effects, and has low toxicity. It can be calculated from the maximum tolerance dose of intramuscular injection and intravenous injection for animals that the maximum tolerance dose for human is 33.249 g of gastrodin (calculated at 60 kg).

Molecule | maximum tolerance dose for human [g]
OCc1ccc(O[C@@H]2O[C@H](CO)[C@@H](O)[C@H](O)[C@H]2O)cc1 [Gastrodin, 4-hydroxymethylphenyl-β-D-glucopyranoside hemihydrate] | 33.249

experiment: Dissolution of the compound together with gastrodin in the preparation tank; type: physicochemical; details: amounts per formula of the example; with gastrodin in water for injection kept at 80 °C, vacuum, nitrogen gas
Description: heating water for injection to 80-98 °C, followed by stirring under vacuum conditions at 30-80 °C, and then adding the reactant under the protection of nitrogen gas or argon gas to obtain a solution of the reactant.
60% of the total amount of water for injection for preparation was added into a preparation tank, heated to 95 °C with slight boiling, and kept at 80 °C. The vacuum was initiated while stirring for 10 minutes, followed by bringing breviscapine along with gastrodin and sodium carbonate weighed according to the amounts in the formula by nitrogen gas into the preparation tank. […] Next, it is sterile-filtered, sterile-filled and freeze-dried by a conventional process to obtain the freeze-dried powder for injection.

Molecule | time in which the compound dissolved in the preparation tank
O=c1c(-c2ccc(O)cc2)coc2cc(O)ccc12 [Daidzein] | about 5 minutes
O=c1cc(-c2ccccc2)oc2cc(O)c(O)c(O)c12 [Baicalein] | about 5 minutes
COc1ccc([C@@H]2CC(=O)c3c(O)cc(O)cc3O2)cc1O [Hesperetin] | about 5 minutes
O=c1c(-c2ccc(O)cc2)coc2c([C@@H]3O[C@H](CO)[C@@H](O)[C@H](O)[C@H]3O)c(O)ccc12 [Puerarin] | about 5 minutes
COc1ccc(/C=C/c2cc(O)cc(O[C@@H]3O[C@H](CO)[C@@H](O)[C@H](O)[C@H]3O)c2)cc1 [Deoxyrhapontin] | about 5 minutes
OC[C@H]1O[C@@H](Oc2cc(O)cc(/C=C/c3ccc(O)cc3)c2)[C@H](O)[C@@H](O)[C@@H]1O [Polydatin] | about 5 minutes
COc1ccc(-c2oc3cc(O)cc(O)c3c(=O)c2O)cc1 [Kaempferide] | about 5 minutes
Oc1ccc(C=Cc2cc(O)cc(O)c2)cc1 [Resveratrol] | about 5 minutes
CC(=O)Cc1cc(=O)c2c(C)cc(O)c([C@@H]3O[C@H](CO)[C@@H](O)[C@H](O)[C@H]3O)c2o1 [Aloesin] | about 5 minutes
Oc1ccc2c(c1)OC[C@H]1c3cc4c(cc3O[C@@H]21)OCO4 [Maackiain] | about 5 minutes
COc1c(O)cc2c(c1O)[C@@H]1O[C@H](CO)[C@@H](O)[C@H](O)[C@H]1OC2=O [Bergenin] | about 5 minutes
O=C1CC(c2ccccc2)Oc2cc(O)c(O)c(O)c21 (centres unmarked) [Dihydrobaicalein] | about 5 minutes
O=C1C[C@@H](c2ccc(O)cc2)Oc2cc(O)cc(O)c21 [Naringenin] | about 5 minutes
O=c1cc(-c2ccc(O)c(O)c2)oc2cc(O)c([C@@H]3O[C@H](CO)[C@@H](O)[C@H](O)[C@H]3O)c(O)c12 [Homoorientin] | about 5 minutes
O=C1c2c(O)cccc2C([C@@H]2O[C@H](CO)[C@@H](O)[C@H](O)[C@H]2O)c2cc(CO)cc(O)c21 (some centres unmarked) [Barbaloin] | about 5 minutes
OC[C@H]1O[C@@H](Oc2cc(/C=C/c3cc(O)cc(O)c3)ccc2O)[C@H](O)[C@@H](O)[C@@H]1O | about 5 minutes
Taxinine | about 5 minutes
O=c1c(-c2ccc(O)cc2)coc2cc(O[C@@H]3O[C@H](CO)[C@@H](O)[C@H](O)[C@H]3O)ccc12 [Daidzin] | about 5 minutes
O=C(O)[C@H]1O[C@@H](Oc2cc3oc(-c4ccccc4)cc(=O)c3c(O)c2O)[C@H](O)[C@@H](O)[C@@H]1O [Baicalin] | about 5 minutes
O=c1c(O)c(-c2ccc(O)c(O)c2)oc2cc(O)cc(O)c12 [Quercetin] | about 5 minutes
COc1ccc(/C=C/c2cc(O)cc(O[C@@H]3O[C@H](CO)[C@@H](O)[C@H](O)[C@H]3O)c2)cc1O [Rhapontin] | about 5 minutes
Breviscapine | about 5 minutes
